Test results as given in patent US20250121084A1, “ANTI-CLAUDIN-6 CONJUGATES” (priority 2023, published 2025).
Starred links: 1 amine or outer side, 2 acyl side, 3 side chain; linkers in the order of their positions; H or OH if unused. Non-standard residues stand in square brackets, D forms with d. Residues, ends and D or L forms follow the SMILES beside them. *: point of attachment. Exatecan = CC[C@@]1(O)C(=O)OCc2c1cc1n(c2=O)Cc2c-1nc1cc(F)c(C)c3c1c2[C@@H](N*)CC3; Propanoyl(3-maleimido) = O=C1C=CC(=O)N1CCC(=O)*; PABC = O=C(OCc1ccc(N[*:1])cc1)[*:2]

Tests used:
[1] = Aggregation during conjugation to a test antibody (% monomer by SEC); format: physicochemical
Description: 2 mg of monoclonal antibody GB01 at 8.87 mg/ml was pH adjusted with 5% 0.5 M Tris, 0.025 M EDTA, pH 8.5 and reduced with 2.3 mol. eq. TCEP and then conjugated with 6 mol. eq. drug linker. After buffer exchange into 30 mM Histidine, 175 mM Sucrose pH 6.0/PBS, the drug to antibody ratio (DAR) was by HIC/LC-MS and % Monomer by size exclusion chromatography (SEC). Percentage monomer values of 95% or greater are assessed as low aggregation.
Aggregation levels were assessed during the conjugation to a test antibody. Conjugation was performed as described above for ADC1.
During conjugation, we are ideally targeting a monomer content or percentage monomer of 95% or above. Low percentage monomer values usually translate to a higher degree of aggregation. One could therefore agree that percentage monomer values of 95% or higher mean very low levels of aggregation or none, whereas values below this threshold often translate to higher levels of aggregation.

[2] = RP-HPLC retention time correlated with hydrophobicity; format: physicochemical; conditions: high Rt = hydrophobic, low Rt = hydrophilic
Description: A correlation study was also carried out using Reverse-Phase HPLC (RP-HPLC). The two constructs were injected in RP-HPLC and retention times (Rt) correlated with hydrophobicity—i.e., high Rt was associated to hydrophobic constructs whereas low Rt to hydrophilic ones.

[3] = target: T1, topo I/DNA complex (Homo sapiens, UniProt P11387); conditions: versus SN38 (the active metabolite of irinotecan); cited from earlier work
T1 sequence (P11387 1-765): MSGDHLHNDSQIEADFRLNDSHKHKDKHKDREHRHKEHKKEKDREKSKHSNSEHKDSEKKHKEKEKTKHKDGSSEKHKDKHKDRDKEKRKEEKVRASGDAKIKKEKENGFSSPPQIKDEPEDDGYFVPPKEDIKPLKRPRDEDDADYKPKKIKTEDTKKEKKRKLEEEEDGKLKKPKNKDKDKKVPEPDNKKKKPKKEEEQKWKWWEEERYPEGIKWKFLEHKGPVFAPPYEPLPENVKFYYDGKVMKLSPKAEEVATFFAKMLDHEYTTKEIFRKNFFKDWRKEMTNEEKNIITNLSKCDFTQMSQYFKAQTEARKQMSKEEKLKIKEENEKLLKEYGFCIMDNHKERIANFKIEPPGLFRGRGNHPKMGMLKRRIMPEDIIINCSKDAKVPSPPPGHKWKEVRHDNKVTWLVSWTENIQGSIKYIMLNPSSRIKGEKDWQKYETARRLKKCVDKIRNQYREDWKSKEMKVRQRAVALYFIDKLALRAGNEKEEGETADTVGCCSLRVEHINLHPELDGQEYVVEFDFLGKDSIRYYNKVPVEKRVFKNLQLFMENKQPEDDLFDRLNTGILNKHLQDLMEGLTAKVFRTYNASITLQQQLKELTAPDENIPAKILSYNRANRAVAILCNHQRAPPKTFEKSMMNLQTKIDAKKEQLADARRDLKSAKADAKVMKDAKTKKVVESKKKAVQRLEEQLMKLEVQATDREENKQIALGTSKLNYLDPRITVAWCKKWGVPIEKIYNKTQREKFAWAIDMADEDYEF

[4] = system: a variety of cell lines; conditions: versus SN38; cited from earlier work

| Structure (SMILES) | Aggregation [1] | Aggregation (% monomer) ([1]; 95% or greater = low aggregation) [%] | Rt [2] [min] | potency relative to SN38 at stabilizing the topo I/DNA complex [3] | potency relative to SN38 as a cytotoxin [4] |
| --- | --- | --- | --- | --- | --- |
| CC[C@@]1(O)C(=O)OCc2c1cc1n(c2=O)Cc2c-1nc1cc(F)c(C)c3c1c2[C@@H](NC(=O)OCc1ccc(NC(=O)[C@H](C)NC(=O)[C@@H](NC(=O)CNC(=O)CNC(=O)CNC(=O)CNC(=O)CNC(=O)CCN2C(=O)C=CC2=O)C(C)C)cc1)CC3 [Mal-Gly5-VA-PABC-Exatecan] ({Propanoyl(3-maleimido)}-GGGGGVA[PABC]-Exatecan) | None | 98 | 9.76 |  |  |
| CC[C@@]1(O)C(=O)OCc2c1cc1n(c2=O)Cc2c-1nc1cc(F)c(C)c3c1c2[C@@H](N)CC3 [Exatecan] |  |  |  | about 2.5 fold | about 2.5 fold |
